From PubChem BioAssay AID330 (DTP/NCI, 2004)
Several values for one entry are separate records, joined by “and”; a condition that tells them apart may be missing. Equal values may be shown once. Toxic doses and inconclusive results are not listed. The calls were made as follows: active = survival T/C of 150% or more; inactive = T/C below 125% in these data.

System: P388 leukemia ip, CD2F1 mice, survival T/C
Assay: NCI In Vivo Anticancer Drug Screen. Data for tumor model P388 Leukemia (intraperitoneal) in CD2F1 (CDF1) mice
Conditions: endpoint: median survival time, higher = longer survival
In short: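 Mice carrying the transplanted tumor received test compound or vehicle. Survival was recorded in each group, and the value is the treated-group measurement divided by that of the vehicle-treated control group.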

[1] = dose: 25.0 mg/kg/injection, schedule: Q01DX009 (ip), vehicle: Klucel (hydroxypropylcellulose) (HPC)
[2] = dose: 50.0 mg/kg/injection, schedule: Q01DX009 (ip), vehicle: Klucel (hydroxypropylcellulose) (HPC)
[3] = dose: 100.0 mg/kg/injection, schedule: Q01DX009 (ip), vehicle: Klucel (hydroxypropylcellulose) (HPC)
[4] = dose: 50.0 mg/kg/injection, schedule: Q01DX005 (ip), vehicle: saline with Tween-80
[5] = dose: 100.0 mg/kg/injection, schedule: Q01DX005 (ip), vehicle: saline with Tween-80
[6] = dose: 200.0 mg/kg/injection, schedule: Q01DX005 (ip), vehicle: saline with Tween-80
[7] = dose: 50.0 mg/kg/injection, schedule: Q01DX009 (ip), vehicle: saline
[8] = dose: 60.0 mg/kg/injection, schedule: Q01DX005 (ip), vehicle: saline with Tween-80
[9] = dose: 50.0 mg/kg/injection, schedule: Q01DX009 (ip), vehicle: saline with Tween-80
[10] = dose: 100.0 mg/kg/injection, schedule: Q01DX009 (ip), vehicle: saline with Tween-80
[11] = dose: 200.0 mg/kg/injection, schedule: Q01DX009 (ip), vehicle: saline with Tween-80

Measured: T/C

COc1c(Cl)ncnc1Cl
inactive: [1] 100 % of control | [2] 103 % of control | [3] 110 % of control | dose: 200.0 mg/kg/injection, schedule: Q01DX009 (ip), vehicle: Klucel (hydroxypropylcellulose) (HPC) 98 % of control

O=[N+]([O-])c1ccc(N2C(c3ccccc3)=N[C@@H](N3CCOCC3)[C@@H]2N2CCOCC2)cc1
inactive: dose: 50.0 mg/kg/injection, schedule: Q01DX005 (ip), vehicle: Klucel (hydroxypropylcellulose) (HPC) 101 % of control | dose: 100.0 mg/kg/injection, schedule: Q01DX005 (ip), vehicle: Klucel (hydroxypropylcellulose) (HPC) 97 % of control | dose: 200.0 mg/kg/injection, schedule: Q01DX005 (ip), vehicle: Klucel (hydroxypropylcellulose) (HPC) 95 % of control

COc1ccc2c(c1)CC/C(=C\C1(Sc3ccccc3)CC1)C2O (stereo not given)
inactive: [4] 102 % of control | [5] 102 % of control | [6] 98 % of control

ON(C=Nc1ccccc1)c1ccccc1
inactive: [7] 101 % of control | dose: 100.0 mg/kg/injection, schedule: Q01DX009 (ip), vehicle: saline 101 % of control | dose: 200.0 mg/kg/injection, schedule: Q01DX009 (ip), vehicle: saline 97 % of control

Cc1cccc(Cl)c1NCCN1CCCC1
inactive: dose: 15.0 mg/kg/injection, schedule: Q01DX005 (ip), vehicle: saline with Tween-80 103 % of control | dose: 30.0 mg/kg/injection, schedule: Q01DX005 (ip), vehicle: saline with Tween-80 101 % of control | [8] 106 % of control and 108 % of control

CCC[As](C)SCC1OC(OC(C)=O)C(OC(C)=O)C(OC(C)=O)C1OC(C)=O (stereo not given)
inactive: [9] 110 % of control | [10] 102 % of control | [11] 118 % of control

CCC12OCCN1CCO2
inactive: dose: 200.0 mg/kg/injection, schedule: Q01DX009 (ip), vehicle: water 100 % of control | dose: 400.0 mg/kg/injection, schedule: Q01DX009 (ip), vehicle: water 100 % of control | dose: 800.0 mg/kg/injection, schedule: Q01DX009 (ip), vehicle: water 102 % of control | dose: 1600.0 mg/kg/injection, schedule: Q01DX009 (ip), vehicle: water 106 % of control

CC(=O)OCCN1c2ccccc2Sc2cnccc21
inactive: [10] 100 % of control | [11] 100 % of control | dose: 400.0 mg/kg/injection, schedule: Q01DX009 (ip), vehicle: saline with Tween-80 95 % of control

C=CC[N+](CCO)(CCO)CCCCCCCCCCCCCCCCCC
inactive: dose: 6.25 mg/kg/injection, schedule: Q01DX009 (ip), vehicle: saline with Tween-80 114 % of control | dose: 12.5 mg/kg/injection, schedule: Q01DX009 (ip), vehicle: saline with Tween-80 108 % of control

COc1ccc(CNCCCSC)cc1
inactive: dose: 50.0 mg/kg/injection, schedule: Q01DX005 (ip), vehicle: saline 105 % of control | dose: 100.0 mg/kg/injection, schedule: Q01DX005 (ip), vehicle: saline 110 % of control

CC1(C)OC2(C)CCC1C1C2N1C(=O)Nc1cccc2ccccc12 (stereo not given)
inactive: [4] 99 % of control | [5] 97 % of control | [6] 93 % of control

N/C(=N\OC(=O)Nc1cccc(Cl)c1)C(Cl)(Cl)Cl
inactive: [1] 98 % of control | [2] 113 % of control | [3] 112 % of control

CC1(C)C=C2OC(=O)CCC2(C)CC1 (stereo not given)
inactive: dose: 50.0 mg/kg/injection, schedule: Q01DX001 (ip), vehicle: saline with Tween-80 95 % of control | dose: 100.0 mg/kg/injection, schedule: Q01DX001 (ip), vehicle: saline with Tween-80 118 % of control | dose: 200.0 mg/kg/injection, schedule: Q01DX001 (ip), vehicle: saline with Tween-80 90 % of control

CC1CCCCC1(O)Cc1ccccc1 (stereo not given)
inactive: dose: 50.0 mg/kg/injection, schedule: Q01DX005 (ip), vehicle: distilled water + alcohol 108 % of control | dose: 100.0 mg/kg/injection, schedule: Q01DX005 (ip), vehicle: distilled water + alcohol 101 % of control | dose: 200.0 mg/kg/injection, schedule: Q01DX005 (ip), vehicle: distilled water + alcohol 105 % of control

N#Cc1c(N)nc(N)nc1Nc1ccc(Cl)cc1
inactive: [8] 113 % of control | dose: 120.0 mg/kg/injection, schedule: Q01DX005 (ip), vehicle: saline with Tween-80 110 % of control | dose: 240.0 mg/kg/injection, schedule: Q01DX005 (ip), vehicle: saline with Tween-80 115 % of control

CCOC(=C\C=C\C1=[N+](C)c2ccccc2C1(C)C)/C=C/C=C1/N(C)c2ccccc2C1(C)C
inactive: dose: 1.56 mg/kg/injection, schedule: Q01DX009 (ip), vehicle: saline with Tween-80 117 % of control | dose: 3.13 mg/kg/injection, schedule: Q01DX009 (ip), vehicle: saline with Tween-80 114 % of control

CNC(=O)c1ccccc1
inactive: dose: 25.0 mg/kg/injection, schedule: Q01DX009 (ip), vehicle: saline with Tween-80 98 % of control | [9] 100 % of control | [10] 100 % of control | [11] 100 % of control

CCOC(=O)N1C=CC2Oc3c(Cl)c(Cl)c(Cl)c(Cl)c3OC2C=N1 (stereo not given)
inactive: dose: 60.0 mg/kg/injection, schedule: Q01DX005 (ip), vehicle: Klucel (hydroxypropylcellulose) (HPC) 102 % of control | dose: 120.0 mg/kg/injection, schedule: Q01DX005 (ip), vehicle: Klucel (hydroxypropylcellulose) (HPC) 101 % of control | dose: 240.0 mg/kg/injection, schedule: Q01DX005 (ip), vehicle: Klucel (hydroxypropylcellulose) (HPC) 101 % of control

CCCCCCCCCCCCNCC(=O)O
inactive: dose: 25.0 mg/kg/injection, schedule: Q01DX009 (ip), vehicle: saline 109 % of control | [7] 113 % of control

COc1cc(C)c(OC)c(C/C=C(\C)CC2(O)C[C@@]3(C)CCC[C@@]3(C)C(=O)C2CC(C)(C)O)c1 (stereo not given in full)
inactive: dose: 5.0 mg/kg/injection, schedule: Q01DX005 (ip), vehicle: saline with Tween-80 92 % of control | dose: 10.0 mg/kg/injection, schedule: Q01DX005 (ip), vehicle: saline with Tween-80 95 % of control | dose: 20.0 mg/kg/injection, schedule: Q01DX005 (ip), vehicle: saline with Tween-80 93 % of control

CCn1c(Cl)c(/C=N/NC(N)=S)c2cccc(/C=N\NC(N)=S)c21
inactive: dose: 100.0 mg/kg/injection, schedule: Q01DX001 (ip), vehicle: Klucel (hydroxypropylcellulose) (HPC) 97 % of control | dose: 200.0 mg/kg/injection, schedule: Q01DX001 (ip), vehicle: Klucel (hydroxypropylcellulose) (HPC) 87 % of control | dose: 400.0 mg/kg/injection, schedule: Q01DX001 (ip), vehicle: Klucel (hydroxypropylcellulose) (HPC) 97 % of control

COc1cccc(N2CCN(CC(O)COc3cc4c(c5c3CCCC5)CCCC4)CC2)c1 (stereo not given)
inactive: dose: 100.0 mg/kg/injection, schedule: Q04DX003 (ip), vehicle: Klucel (hydroxypropylcellulose) (HPC) 93 % of control | dose: 200.0 mg/kg/injection, schedule: Q04DX003 (ip), vehicle: Klucel (hydroxypropylcellulose) (HPC) 92 % of control | dose: 400.0 mg/kg/injection, schedule: Q04DX003 (ip), vehicle: Klucel (hydroxypropylcellulose) (HPC) 91 % of control

CCOC(=O)C(Cc1ccc(N(CCCl)CCCl)cc1)NC(=O)C(Cc1ccc([N+](=O)[O-])cc1)NC(C)=O (stereo not given)
inactive: dose: 5.0 mg/kg/injection, schedule: Q04DX003 (ip), vehicle: water 91 % of control | dose: 10.0 mg/kg/injection, schedule: Q04DX003 (ip), vehicle: water 91 % of control | dose: 20.0 mg/kg/injection, schedule: Q04DX003 (ip), vehicle: water 90 % of control | dose: 40.0 mg/kg/injection, schedule: Q04DX003 (ip), vehicle: other 88 % of control | dose: 40.0 mg/kg/injection, schedule: Q04DX003 (ip), vehicle: water 98 % of control | dose: 80.0 mg/kg/injection, schedule: Q04DX003 (ip), vehicle: other 91 % of control | dose: 100.0 mg/kg/injection, schedule: Q04DX003 (ip), vehicle: other 90 % of control | dose: 160.0 mg/kg/injection, schedule: Q04DX003 (ip), vehicle: other 94 % of control | dose: 200.0 mg/kg/injection, schedule: Q04DX003 (ip), vehicle: other 102 % of control | dose: 400.0 mg/kg/injection, schedule: Q04DX003 (ip), vehicle: other 112 % of control
